Measurements: patent US20260028365A1 (BIOGEN MA INC., priority 2022, published 2026)
Read-outs that look alike come from different tables or passages of the source.

Legend:
[1] = target: JH2 domain of human Tyk2 (Homo sapiens (Human), UniProt P29597); assay: JH2 Biochemical Assay (TR-FRET probe displacement); assay type: binding
[2] = target: Tyk2 (Homo sapiens (Human), UniProt P29597); assay: pSTAT4 Cell Assay (MSD, NK92 cells); assay type: cell-based
[3] = JH2 domain of human Tyk2, TR-FRET probe displacement
[4] = TR-FRET probe displacement, JH2 domain

Sequence of JH2 domain of human Tyk2 (P29597 575-876): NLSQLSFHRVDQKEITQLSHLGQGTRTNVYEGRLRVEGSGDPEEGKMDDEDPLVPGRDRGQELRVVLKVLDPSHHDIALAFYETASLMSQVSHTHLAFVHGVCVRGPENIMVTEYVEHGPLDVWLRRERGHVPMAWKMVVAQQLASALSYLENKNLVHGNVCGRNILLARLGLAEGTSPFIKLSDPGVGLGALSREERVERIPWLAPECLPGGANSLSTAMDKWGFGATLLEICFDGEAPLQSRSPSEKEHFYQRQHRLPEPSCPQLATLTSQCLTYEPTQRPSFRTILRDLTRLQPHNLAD
Sequence of Tyk2 (P29597 whole entry, the tested form may be a part): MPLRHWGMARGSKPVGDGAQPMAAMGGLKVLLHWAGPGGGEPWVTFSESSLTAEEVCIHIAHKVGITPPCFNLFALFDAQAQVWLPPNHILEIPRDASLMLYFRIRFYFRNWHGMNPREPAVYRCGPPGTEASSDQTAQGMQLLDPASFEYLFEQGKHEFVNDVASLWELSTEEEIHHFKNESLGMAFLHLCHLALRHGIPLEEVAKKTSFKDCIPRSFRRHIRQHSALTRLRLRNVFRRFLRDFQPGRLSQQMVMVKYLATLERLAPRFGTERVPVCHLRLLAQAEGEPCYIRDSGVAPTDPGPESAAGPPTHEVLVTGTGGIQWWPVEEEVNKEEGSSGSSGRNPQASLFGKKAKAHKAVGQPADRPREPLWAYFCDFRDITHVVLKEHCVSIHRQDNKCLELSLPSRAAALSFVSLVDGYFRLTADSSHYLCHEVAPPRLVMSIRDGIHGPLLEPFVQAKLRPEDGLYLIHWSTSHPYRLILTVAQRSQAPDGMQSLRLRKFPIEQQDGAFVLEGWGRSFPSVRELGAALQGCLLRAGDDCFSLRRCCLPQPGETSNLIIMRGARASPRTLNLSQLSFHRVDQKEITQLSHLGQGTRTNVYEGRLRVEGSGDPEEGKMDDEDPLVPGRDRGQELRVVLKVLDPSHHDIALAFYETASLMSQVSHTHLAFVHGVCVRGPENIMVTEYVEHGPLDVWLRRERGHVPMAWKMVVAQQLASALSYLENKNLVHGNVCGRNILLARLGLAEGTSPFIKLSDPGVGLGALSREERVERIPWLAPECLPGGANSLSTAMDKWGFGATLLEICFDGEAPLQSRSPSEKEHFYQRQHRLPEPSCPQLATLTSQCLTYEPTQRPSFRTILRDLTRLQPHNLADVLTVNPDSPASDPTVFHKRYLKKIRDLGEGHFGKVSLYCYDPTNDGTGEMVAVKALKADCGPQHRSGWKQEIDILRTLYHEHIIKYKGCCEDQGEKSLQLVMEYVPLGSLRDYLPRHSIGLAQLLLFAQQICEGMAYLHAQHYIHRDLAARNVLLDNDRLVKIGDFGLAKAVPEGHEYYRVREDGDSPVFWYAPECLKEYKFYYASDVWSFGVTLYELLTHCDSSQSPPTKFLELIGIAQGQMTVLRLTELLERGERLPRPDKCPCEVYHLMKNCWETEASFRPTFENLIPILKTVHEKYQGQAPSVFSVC

SMILES | IC50 [1, 3] [nM] | IC50 ([2]; MSD) [nM] | IC50 [1, 4] [nM] | IC50 [2] [nM]
CC(=O)Nc1cc(Nc2cc(C)nc(C(C)(F)F)n2)c(-c2cc(CN(C)C)ccn2)cn1 [Example 740, N-(4′-((2-(1,1-difluoroethyl)-6-methylpyrimidin-4-yl)amino)-4-((dimethylamino)methyl)-[2,3′-bipyridin]-6′-yl)acetamide] | ≤ 10 | ≤ 10 | – | –
CC(=O)Nc1cc(Nc2cc(C)nc(C(C)(F)F)n2)c(-c2cnc(C(C)N(C)C)cn2)cn1 (stereo not shown) [Example 741, N-(4-((2-(1,1-difluoroethyl)-6-methylpyrimidin-4-yl)amino)-5-(5-(1-(dimethylamino)ethyl)pyrazin-2-yl)pyridin-2-yl)acetamide] | ≤ 10 | ≤ 10 | – | –
CC(=O)Nc1cc(Nc2cc(C)nc(C(C)(F)F)n2)c(-c2cc(C(C)N(C)C)ccn2)cn1 (stereo not shown) [Example 743, N-(4′-((2-(1,1-difluoroethyl)-6-methylpyrimidin-4-yl)amino)-4-(1-(dimethylamino)ethyl)-[2,3′-bipyridin]-6′-yl)acetamide] | ≤ 10 | 10 to 100 | – | –
COCCc1cc(-c2cnc(NC(C)=O)cc2Nc2cc(C)nc(C(C)(F)F)n2)ncn1 [Example 745, N-(4-((2-(1,1-difluoroethyl)-6-methylpyrimidin-4-yl)amino)-5-(6-(2-methoxyethyl)pyrimidin-4-yl)pyridin-2-yl)acetamide] | ≤ 10 | 10 to 100 | – | –
COc1ccc(-c2cnc(NC(C)=O)cc2Nc2cc(C)nc(C34COC(C3)C4)n2)nn1 [Example 749, N-(4-((2-(2-oxabicyclo[2.1.1]hexan-4-yl)-6-methylpyrimidin-4-yl)amino)-5-(6-methoxypyridazin-3-yl)pyridin-2-yl)acetamide] | – | – | ≤ 10 | 10 to 100
COc1cc(-c2cnc(NC(C)=O)cc2Nc2cc(C)nc(C34COC(C3)C4)n2)ncn1 [Example 750, N-(4-((2-(2-oxabicyclo[2.1.1]hexan-4-yl)-6-methylpyrimidin-4-yl)amino)-5-(6-methoxypyrimidin-4-yl)pyridin-2-yl)acetamide] | – | – | ≤ 10 | 100 to 1000
COc1cnnc(-c2cnc(NC(C)=O)cc2Nc2cc(C)nc(C(C)(F)F)n2)c1 [Example 753, N-(4-((2-(1,1-difluoroethyl)-6-methylpyrimidin-4-yl)amino)-5-(5-methoxypyridazin-3-yl)pyridin-2-yl)acetamide] | – | – | ≤ 10 | ≥ 1000
COC(C)(C)c1cc(-c2cnc(NC(C)=O)cc2Nc2cc(C)nc(C(C)(F)F)n2)nn1C [Example 758, N-(4-((2-(1,1-difluoroethyl)-6-methylpyrimidin-4-yl)amino)-5-(5-(2-methoxypropan-2-yl)-1-methyl-1H-pyrazol-3-yl)pyridin-2-yl)acetamide] | – | – | ≤ 10 | ≤ 10
CC(=O)Nc1cc(Nc2cc(C)nc(C(C)(F)F)n2)c(-c2nc3n(n2)CCN(C)C3)cn1 [Example 759, N-(4-((2-(1,1-difluoroethyl)-6-methylpyrimidin-4-yl)amino)-5-(7-methyl-5,6,7,8-tetrahydro[1,2,4]triazolo[1,5-a]pyrazin-2-yl)pyridin-2-yl)acetamide] | – | – | ≤ 10 | 10 to 100
CC(=O)Nc1cc(Nc2cc(C)nc(C(C)(F)F)n2)c(-c2nc3n(n2)CCOC3)cn1 [Example 760, N-(4-((2-(1,1-difluoroethyl)-6-methylpyrimidin-4-yl)amino)-5-(5,6-dihydrO8H-[1,2,4]triazolo[5,1-c][1,4]oxazin-2-yl)pyridin-2-yl)acetamide] | – | – | ≤ 10 | 10 to 100
CC(=O)Nc1cc(Nc2cc(C)nc(C(C)(F)F)n2)c(-c2ccsn2)cn1 [Example 761, N-(4-((2-(1,1-difluoroethyl)-6-methylpyrimidin-4-yl)amino)-5-(isothiazol-3-yl)pyridin-2-yl)acetamide] | – | – | ≤ 10 | ≥ 1000
COCc1nsc(-c2cnc(NC(C)=O)cc2Nc2cc(C)nc(C(C)(F)F)n2)n1 [Example 762, N-(4-((2-(1,1-difluoroethyl)-6-methylpyrimidin-4-yl)amino)-5-(3-(methoxymethyl)-1,2,4-thiadiazol-5-yl)pyridin-2-yl)acetamide] | – | – | ≤ 10 | ≤ 10
CC(=O)Nc1cc(Nc2cc(C)nc(C(C)(F)F)n2)c(-c2nsc(N(C)C)n2)cn1 [Example 763, N-(4-((2-(1,1-difluoroethyl)-6-methylpyrimidin-4-yl)amino)-5-(5-(dimethylamino)-1,2,4-thiadiazol-3-yl)pyridin-2-yl)acetamide] | – | – | ≤ 10 | 100 to 1000
COCCc1cnn(-c2cnc(NC(C)=O)cc2Nc2cc(C)nc(C(C)(F)F)n2)c1 [Example 764, N-(4-((2-(1,1-difluoroethyl)-6-methylpyrimidin-4-yl)amino)-5-(4-(2-methoxyethyl)-1H-pyrazol-1-yl)pyridin-2-yl)acetamide] | – | – | ≤ 10 | 10 to 100
COCc1cnn(-c2cnc(NC(C)=O)cc2Nc2cc(C)nc(C(C)(F)F)n2)c1 [Example 765, N-(4-((2-(1,1-difluoroethyl)-6-methylpyrimidin-4-yl)amino)-5-(4-(methoxymethyl)-1H-pyrazol-1-yl)pyridin-2-yl)acetamide] | – | – | ≤ 10 | 10 to 100
CC(=O)Nc1cc(Nc2ccnc(C(C)(F)F)n2)c(-c2cncc(C#N)n2)cn1 [Example 766, N-(5-(6-cyanopyrazin-2-yl)-4-((2-(1,1-difluoroethyl)pyrimidin-4-yl)amino)pyridin-2-yl)acetamide] | – | – | ≤ 10 | 100 to 1000
CC(=O)Nc1cc(Nc2ccnc(C(C)(F)F)n2)c(-c2cc(OC(F)F)ncn2)cn1 [Example 767, N-(4-((2-(1,1-difluoroethyl)pyrimidin-4-yl)amino)-5-(6-(difluoromethoxy)pyrimidin-4-yl)pyridin-2-yl)acetamide] | – | – | ≤ 10 | 10 to 100
CC(=O)Nc1cc(Nc2cc(C)nc(C(C)(F)F)n2)c(-c2cn3c(n2)CCC3)cn1 [Example 769, N-(4-((2-(1,1-difluoroethyl)-6-methylpyrimidin-4-yl)amino)-5-(6,7-dihydrO5H-pyrrolo[1,2-a]imidazol-2-yl)pyridin-2-yl)acetamide] | – | – | ≤ 10 | ≤ 10
CC(=O)Nc1cc(Nc2cc(C)nc(C(C)(F)F)n2)c(-c2cn3c(n2)OCC3)cn1 [Example 770, N-(4-((2-(1,1-difluoroethyl)-6-methylpyrimidin-4-yl)amino)-5-(2,3-dihydroimidazo[2,1-b]oxazol-6-yl)pyridin-2-yl)acetamide] | – | – | ≤ 10 | ≤ 10
CC(=O)Nc1cc(Nc2cc(C)nc(C(C)(F)F)n2)c(-c2csc(N3CCN(C)CC3)n2)cn1 [Example 771, N-(4-((2-(1,1-difluoroethyl)-6-methylpyrimidin-4-yl)amino)-5-(2-(4-methylpiperazin-1-yl)thiazol-4-yl)pyridin-2-yl)acetamide] | – | – | ≤ 10 | ≤ 10
COCCN(C)c1nc(-c2cnc(NC(C)=O)cc2Nc2cc(C)nc(C(C)(F)F)n2)cs1 [Example 772, N-(4-((2-(1,1-difluoroethyl)-6-methylpyrimidin-4-yl)amino)-5-(2-((2-methoxyethyl)(methyl)amino)thiazol-4-yl)pyridin-2-yl)acetamide] | – | – | ≤ 10 | ≤ 10
COCCN(C)c1nnc(-c2cnc(NC(C)=O)cc2Nc2ccnc(C(C)(F)F)n2)s1 [Example 773, N-(4-((2-(1,1-difluoroethyl)pyrimidin-4-yl)amino)-5-(5-((2-methoxyethyl)(methyl)amino)-1,3,4-thiadiazol-2-yl)pyridin-2-yl)acetamide] | – | – | ≤ 10 | ≤ 10
CC(=O)Nc1cc(Nc2ccnc(C(C)(F)F)n2)c(-c2nnc(N3CCN(C)CC3)s2)cn1 [Example 774, N-(4-((2-(1,1-difluoroethyl)pyrimidin-4-yl)amino)-5-(5-(4-methylpiperazin-1-yl)-1,3,4-thiadiazol-2-yl)pyridin-2-yl)acetamide] | – | – | ≤ 10 | ≤ 10
COCCOc1ccnc(-c2cnc(NC(C)=O)cc2Nc2cc(C)nc(C(C)(F)F)n2)n1 [Example 777, N-(4-((2-(1,1-difluoroethyl)-6-methylpyrimidin-4-yl)amino)-5-(4-(2-methoxyethoxy)pyrimidin-2-yl)pyridin-2-yl)acetamide] | – | – | 10 to 100 | ≥ 1000
CC(=O)Nc1cc(Nc2ccnc(C(C)(F)F)n2)c(-c2cnn(CCN3CCOCC3)n2)cn1 [Example 778, N-(4-((2-(1,1-difluoroethyl)pyrimidin-4-yl)amino)-5-(2-(2-morpholinoethyl)-2H-1,2,3-triazol-4-yl)pyridin-2-yl)acetamide] | – | – | ≤ 10 | 10 to 100
CC(=O)Nc1cc(Nc2ccnc(C(C)(F)F)n2)c(-c2cnn(CCN3CCN(C)CC3)n2)cn1 [Example 779, N-(4-((2-(1,1-difluoroethyl)pyrimidin-4-yl)amino)-5-(2-(2-(4-methylpiperazin-1-yl)ethyl)-2H-1,2,3-triazol-4-yl)pyridin-2-yl)acetamide] | – | – | ≤ 10 | 10 to 100
COCc1cnc(-c2cnc(NC(C)=O)cc2Nc2ccnc(C(C)(F)F)n2)s1 [Example 781, N-(4-((2-(1,1-difluoroethyl)pyrimidin-4-yl)amino)-5-(5-(methoxymethyl)thiazol-2-yl)pyridin-2-yl)acetamide] | – | – | ≤ 10 | ≤ 10
CC(=O)Nc1cc(Nc2ccnc(C(C)(F)F)n2)c(-c2ncc(CN(C)C)s2)cn1 [Example 782, N-(4-((2-(1,1-difluoroethyl)pyrimidin-4-yl)amino)-5-(5-((dimethylamino)methyl)thiazol-2-yl)pyridin-2-yl)acetamide] | – | – | ≤ 10 | ≤ 10
CC(=O)Nc1cc(Nc2cc(C)nc(C(C)(F)F)n2)c(-c2ncc(CN3CCN(C)CC3)s2)cn1 [Example 783, N-(4-((2-(1,1-difluoroethyl)-6-methylpyrimidin-4-yl)amino)-5-(5-((4-methylpiperazin-1-yl)methyl)thiazol-2-yl)pyridin-2-yl)acetamide] | – | – | ≤ 10 | ≤ 10
